Assay results taken from patent US9656988B2 (Pharmacyclics LLC, priority 2013, dated 2017).
Like-named read-outs stand apart in the source and are kept apart here.

Molecular target: BTK (Homo sapiens (Human), UniProt Q06187)
Assay: Btk in vitro inhibitory activity (one of Method A TR-FRET, Method B electrophoretic mobility shift, Method C radiometric filter binding)
Assay type: biochemical
[1] = determined using one of the methods of Example 355a, 355b and 355c, read-out: BTK IC50

BTK, sequence (Q06187 whole entry): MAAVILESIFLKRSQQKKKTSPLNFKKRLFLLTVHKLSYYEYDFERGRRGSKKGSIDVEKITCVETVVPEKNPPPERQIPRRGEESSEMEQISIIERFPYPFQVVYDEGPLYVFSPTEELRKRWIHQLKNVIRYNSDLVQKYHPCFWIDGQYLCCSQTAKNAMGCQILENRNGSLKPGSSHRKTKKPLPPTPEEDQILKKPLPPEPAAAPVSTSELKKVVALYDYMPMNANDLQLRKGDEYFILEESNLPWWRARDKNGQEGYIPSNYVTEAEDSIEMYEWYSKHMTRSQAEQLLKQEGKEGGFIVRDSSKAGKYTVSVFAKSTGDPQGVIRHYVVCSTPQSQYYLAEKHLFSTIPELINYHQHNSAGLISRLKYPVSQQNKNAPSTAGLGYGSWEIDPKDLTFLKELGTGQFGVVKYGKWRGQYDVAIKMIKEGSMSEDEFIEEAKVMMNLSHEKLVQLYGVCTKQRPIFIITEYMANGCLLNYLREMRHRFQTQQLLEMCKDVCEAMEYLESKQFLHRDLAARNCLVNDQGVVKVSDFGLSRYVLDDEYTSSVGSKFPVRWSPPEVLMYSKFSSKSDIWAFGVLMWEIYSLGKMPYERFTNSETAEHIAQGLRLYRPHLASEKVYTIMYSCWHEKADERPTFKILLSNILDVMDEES

SMILES	IC50 [nM]	IC50 [1] [nM]	IC50 (read-out: Btk (IC50)) [nM]	IC50 (Btk (IC50)) [nM]
COc1ccc(C(=O)N[C@@H]2CCCN(c3cnc(C(N)=O)c(Nc4ccc(N5CCOCC5=O)cc4)n3)C2)cc1 [Example 126, (R)-5-(3-(4-methoxybenzamido)piperidin-1-yl)-3-(4-(3-oxomorpholino)phenylamino)pyrazine-2-carboxamide]	10 to 100	< 10	–	–
CN1CCN(c2ccc(Nc3nc(N4CCC[C@@H](NC(=O)c5ccc(C(C)(C)C)cc5)C4)cnc3C(N)=O)cc2)CC1 [Example 129, (R)-5-(3-(4-tert-butylbenzamido)piperidin-1-yl)-3-(4-(4-methylpiperazin-1-yl)phenylamino)pyrazine-2-carboxamide]	–	< 10	< 10	–
C[C@@H]1[C@H](NC(=O)N(C)C)CCCN1c1cnc(C(N)=O)c(Nc2ccc(C3(C(N)=O)CC3)cc2)n1 [Example 241, 3-(4-(1-carbamoylcyclopropyl)phenylamino)-5-((2R,3R)-3-(3,3-dimethylureido)-2-methylpiperidin-1-yl)pyrazine-2-carboxamide]	–	< 10	–	–
CN(C)C(=O)N[C@@H]1CCCN(c2cnc(C(N)=O)c(Nc3ccc(C(=O)Nc4ccccn4)cc3)n2)C1 [Example 196, (R)-5-(3-(3,3-dimethylureido)piperidin-1-yl)-3-(4-(pyridin-2-ylcarbamoyl)phenylamino)pyrazine-2-carboxamide]	–	10 to 100	–	–
CC(C)(C)c1ccc(C(=O)N[C@@H]2CCCN(c3nnc(C(N)=O)c(Nc4cncc(F)c4)n3)C2)cc1 [Example 52, (R)-3-(3-(4-tert-butylbenzamido)piperidin-1-yl)-5-(5-fluoropyridin-3-ylamino)-1,2,4-triazine-6-carboxamide]	–	100 to 1000	–	–
NC(=O)c1nnc(N2CCC[C@@H](NC(=O)N3CCCC3)C2)nc1Nc1ccc(C(=O)N2CCOCC2)cc1 [Example 35, (R)-5-(4-(morpholine-4-carbonyl)phenylamino)-3-(3-(pyrrolidine-1-carboxamido)piperidin-1-yl)-1,2,4-triazine-6-carboxamide]	–	10 to 100	–	–
CC(C)(C)OC(=O)N1CCC[C@@H](Nc2nnc(C(N)=O)c(Nc3ccc(C(=O)N4CCOCC4)cc3)n2)C1 [Example 60, (R)-tert-butyl 3-(6-carbamoyl-5-(4-(morpholine-4-carbonyl)phenylamino)-1,2,4-triazin-3-ylamino)piperidine-1-carboxylate]	–	100 to 1000	–	–
CN(C(=O)N[C@@H]1CCCN(c2cnc(C(N)=O)c(NC3CCOCC3)n2)C1)c1cc(Cl)cc(C(F)(F)F)c1 [Example 353, (R)-5-(3-(3-(3-chloro-5-(trifluoromethyl)phenyl)-3-methylureido)piperidin-1-yl)-3-(tetrahydro-2H-pyran-4-ylamino)pyrazine-2-carboxamide]	–	1000 to 10000	–	–
NC(=O)c1nnc(N2CCC[C@@H](n3ccc4cc(C5CC5)cc(F)c4c3=O)C2)nc1Nc1ccc(C(=O)N2CCOCC2)cc1 [Example 47, (R)-3-(3-(6-cyclopropyl-8-fluoro-1-oxoisoquinolin-2(1H)-yl)piperidin-1-yl)-5-(4-(morpholine-4-carbonyl)phenylamino)-1,2,4-triazine-6-carboxamide]	–	< 10	–	–
CN1CCCN([C@@H]2CCCN(c3cnc(C(N)=O)c(Nc4ccc(C5(C)CCN(C6CC6)CC5)cc4)n3)C2)C1=O [Example 285, (R)-3-(4-(1-cyclopropyl-4-methylpiperidin-4-yl)phenylamino)-5-(3-(3-methyl-2-oxotetrahydropyrimidin-1(2H)-yl)piperidin-1-yl)pyrazine-2-carboxamide]	–	< 10	< 10	–
CN(C)C(=O)N[C@@H]1CCCN(c2cnc(C(N)=O)c(Nc3ccc(C4CCN(C5CCOCC5)CC4)cc3)n2)C1 [Example 176, (R)-5-(3-(3,3-dimethylureido)piperidin-1-yl)-3-(4-(1-(tetrahydro-2H-pyran-4-yl)piperidin-4-yl)phenylamino)pyrazine-2-carboxamide]	–	< 10	< 10	–
Cc1nc(Nc2nc(N3CCC[C@@H](NC(=O)N(C)C)C3)cnc2C(N)=O)ccc1F [Example 184, (R)-5-(3-(3,3-dimethylureido)piperidin-1-yl)-3-(5-fluoro-6-methylpyridin-2-ylamino)pyrazine-2-carboxamide]	100 to 1000	1000 to 10000	–	–
CN(C(=O)c1ccc(C(C)(C)C)cc1)[C@@H]1CCCN(c2nnc(C(N)=O)c(Nc3ccc(C(=O)N4CCOCC4)cc3)n2)C1 [Example 3, (R)-3-(3-(4-tert-butyl-N-methylbenzamido)piperidin-1-yl)-5-(4-(morpholine-4-carbonyl)phenylamino)-1,2,4-triazine-6-carboxamide]	–	10 to 100	–	–
NC(=O)c1nnc(N2CCC[C@@H](NC(=O)N3CCCCC3)C2)nc1Nc1ccc2cccnc2c1 [Example 109, (R)-3-(3-(piperidine-1-carboxamido)piperidin-1-yl)-5-(quinolin-7-ylamino)-1,2,4-triazine-6-carboxamide]	–	100 to 1000	–	–
COc1ccc(C(=O)N[C@@H]2CCCN(c3cnc(C(N)=O)c(Nc4ccc(C5CCN(C(=O)CC#N)CC5)cc4)n3)C2)cc1 [Example 141, (R)-3-(4-(1-(2-cyanoacetyl)piperidin-4-yl)phenylamino)-5-(3-(4-methoxybenzamido)piperidin-1-yl)pyrazine-2-carboxamide]	–	< 10	–	–
CN1CCC(C(=O)N[C@@H]2CCCN(c3nnc(C(N)=O)c(Nc4ccc(C(=O)N5CCOCC5)cc4)n3)C2)CC1 [Example 31, (R)-3-(3-(1-methylpiperidine-4-carboxamido)piperidin-1-yl)-5-(4-(morpholine-4-carbonyl)phenylamino)-1,2,4-triazine-6-carboxamide]	–	10 to 100	–	–
CN(C(=O)N[C@@H]1CCCN(c2cnc(C(N)=O)c(Nc3ccc(C4(C#N)CC4)cc3)n2)C1)c1cc(Cl)cc(C(F)(F)F)c1 [Example 323, (R)-5-(3-(3-(3-chloro-5-(trifluoromethyl)phenyl)-3-methylureido)piperidin-1-yl)-3-(4-(1-cyanocyclopropyl)phenylamino)pyrazine-2-carboxamide]	–	100 to 1000	100 to 1000	–
CN(C)C(=O)N[C@@H]1CCCN(c2cnc(C(N)=O)c(Nc3ccc(=O)n(C)c3)n2)C1 [Example 186, (R)-5-(3-(3,3-dimethylureido)piperidin-1-yl)-3-(1-methyl-6-oxo-1,6-dihydropyridin-3-ylamino)pyrazine-2-carboxamide]	–	10 to 100	–	10 to 100
Cc1cc(C(=O)N[C@@H]2CCCN(c3nnc(C(N)=O)c(Nc4ccc(C(=O)N5CCOCC5)cc4)n3)C2)no1 [Example 91, (R)—N-(1-(6-carbamoyl-5-(4-(morpholine-4-carbonyl)phenylamino)-1,2,4-triazin-3-yl)piperidin-3-yl)-5-methylisoxazole-3-carboxamide]	–	10 to 100	–	10 to 100
C[C@@H]1[C@H](NC(=O)N(C)C)CCCN1c1cnc(C(N)=O)c(Nc2ccc(C3(C)CCN(C4CC4)CC3)cc2)n1 [Example 247, 3-(4-(1-cyclopropyl-4-methylpiperidin-4-yl)phenylamino)-5-((2R,3R)-3-(3,3-dimethylureido)-2-methylpiperidin-1-yl)pyrazine-2-carboxamide]	–	< 10	< 10	–
CN1CCN([C@@H]2CCCN(c3cnc(C(N)=O)c(Nc4ccc(N5CCS(=O)(=O)CC5)cc4)n3)C2)C1=O [Example 260, (R)-5-(3-(3-methyl-2-oxoimidazolidin-1-yl)piperidin-1-yl)-3-(4-(1,1-dioxothiomorpholino)phenylamino)pyrazine-2-carboxamide]	–	< 10	< 10	–
NC(=O)c1nnc(N2CCC[C@@H](NC(=O)C3CCOCC3)C2)nc1Nc1ccc(C(=O)N2CCOCC2)cc1 [Example 30, (R)-5-(4-(morpholine-4-carbonyl)phenylamino)-3-(3-(tetrahydro-2H-pyran-4-carboxamido)piperidin-1-yl)-1,2,4-triazine-6-carboxamide]	–	10 to 100	–	–
CC(C)(C)c1ccc(C(=O)N[C@@H]2CCN(c3nnc(C(N)=O)c(Nc4ccc(C(=O)N5CCOCC5)cc4)n3)C2)cc1 [Example 49, (R)-3-(3-(4-tert-butylbenzamido)pyrrolidin-1-yl)-5-(4-(morpholine-4-carbonyl)phenylamino)-1,2,4-triazine-6-carboxamide]	–	100 to 1000	–	–
NC(=O)c1nnc(N[C@@H]2CCCN(C(=O)C3CC3)C2)nc1Nc1ccc(C(=O)N2CCOCC2)cc1 [Example 64, (R)-3-(1-(cyclopropanecarbonyl)piperidin-3-ylamino)-5-(4-(morpholine-4-carbonyl)phenylamino)-1,2,4-triazine-6-carboxamide]	–	< 10	–	–
NC(=O)c1ncc(N2CCC[C@@H](NC(=O)c3cccnc3)C2)nc1Nc1ccc(C2CCN(C3CCCC3)CC2)cc1 [Example 304, (R)-3-(4-(1-cyclopentylpiperidin-4-yl)phenylamino)-5-(3-(nicotinamido)piperidin-1-yl)pyrazine-2-carboxamide]	–	< 10	< 10	–
CN(C)C(=O)N[C@@H]1CCCN(c2cnc(C(N)=O)c(Nc3ccc(C4CCN(S(=O)(=O)N(C)C)CC4)cc3)n2)C1 [Example 173, (R)-3-(4-(1-(N,N-dimethylsulfamoyl)piperidin-4-yl)phenylamino)-5-(3-(3,3-dimethylureido)piperidin-1-yl)pyrazine-2-carboxamide]	–	10 to 100	–	10 to 100
CN1CCN([C@@H]2CCCN(c3cnc(C(N)=O)c(Nc4ccc(C5CCN(C6CC6)CC5)cc4)n3)C2)C1=O [Example 259, (R)-3-(4-(1-cyclopropylpiperidin-4-yl)phenylamino)-5-(3-(3-methyl-2-oxoimidazolidin-1-yl)piperidin-1-yl)pyrazine-2-carboxamide]	–	< 10	< 10	–
COCCOc1ccc(Nc2nc(N3CCC[C@@H](NC(=O)N[C@@H](C)c4ccccc4)C3)cnc2C(N)=O)cc1 [Example 346, 3-(4-(2-methoxyethoxy)phenylamino)-5-((R)-3-(3-((S)-1-phenylethyl)ureido)piperidin-1-yl)pyrazine-2-carboxamide]	–	10 to 100	–	–
CN(C)C(=O)N[C@@H]1CCCN(c2cnc(C(N)=O)c(Nc3ccc(N4CCN(C5CC5)CC4)cc3)n2)C1 [Example 214, (R)-3-(4-(4-cyclopropylpiperazin-1-yl)phenylamino)-5-(3-(3,3-dimethylureido)piperidin-1-yl)pyrazine-2-carboxamide]	–	< 10	< 10	–
